# Experimental data reported in patent US9023876B2, “Compounds and methods for regulating integrins” (Adhaere Pharmaceuticals, Inc., priority 2010, dated 2015).
# Experiments:
# [1] = target: T1, mutant integrin CD11bE320A/CD18 (Homo sapiens, UniProt P11215, E336A); test: Adhesion of K562 E320A cells to immobilized Fg; format: cell-based
# T1 construct: expressed in transfected cells; host or cells: K562
# Method: K562 cells (ATCC) stably transfected with wild-type integrin CD11b/CD18 (K562 CD11b/CD18) have been described previously. Mutant CD11bE320A has been described previously. K562 cells stably transfected with mutant integrin CD11bE320A/CD18 (K562 E320A) were generated according to literature protocols. All cell lines were maintained in Iscove's Modified Dulbecco's Medium (IMDM) supplemented with 10% heat-inactivated fetal bovine serum, 50 IU/ml penicillin and streptomycin and 0.5 mg/ml G418.
# Cell adhesion assays with immobilized ligands were performed as previously described. Assays with all different K562 cell lines (K562, K562 CD11b/CD18 and K562 E320A) were performed in an identical fashion. Briefly, 384-well Highbind microtiter plates were coated with a 30 μL solution of ligand in Phosphate Buffered Saline, pH 7.4 containing 1 mM each of Ca^2+ and Mg^2+ ions (PBS^++) overnight at 4° C. Ligand Fg was coated at a concentration of […] and iC3b at […]. Heterodimer specific mAb IB4 (ascites) was coated at a 1:100 dilution. […] Cells remaining adherent were fixed using formaldehyde and were quantitated using imaging microscopy, as previously described. […]
# [2] = system: Tg(mpx::eGFP) zebrafish larvae; test: Zebrafish tailfin injury assay; format: in vivo; details: 4 h post injury; vehicle 34.6±4.5
# Method: Transgenic Tg(mpx::eGFP) were maintained according to standard protocols. Tailfin injury in three days post fertilization (dpf) larvae was performed as described. Larvae were anesthetized by immersion in E3 with […] tricane, and tail was completely transected with a sterile microdissection scalpel in accordance with the approved protocols and were recovered for the indicated time points. Zebrafish larvae (3 dpf) were treated with compounds as described (Ref). Briefly, small molecule compounds were administered by immersing the larvae in a solution of the compounds in E3. The final concentration of DMSO was kept at <1%. For the assessment of the inflammatory response, injured larvae were analyzed at 4 h post-injury. For the post-wash assay, uninjured larvae incubated with the compounds in E3 for 4-8 h, washed into E3 and injured. Larvae were analyzed using a Leica DMI6000B microscope and an Hamamatsu Orca-3CCD camera using Volocity. Excitation was performed using the laser at 488 nm and the images were analyzed using Volocity. The number of fluorescent neutrophils at the site of inflammation were counted by eye in a blinded fashion. […]
# integrin CD11b/CD18 = target: T2, integrin CD11b/CD18 (Homo sapiens, UniProt P11215); test: K562 CD11b/CD18 cell adhesion to immobilized iC3b; format: cell-based; details: increasing amounts of compound
# T2 construct: expressed in transfected cells; host or cells: K562
# Method: Cell adhesion assays with immobilized ligands were performed as previously described. Assays with all different K562 cell lines (K562, K562 CD11b/CD18 and K562 E320A) were performed in an identical fashion. Briefly, 384-well Highbind microtiter plates were coated with a 30 μL solution of ligand in Phosphate Buffered Saline, pH 7.4 containing 1 mM each of Ca^2+ and Mg^2+ ions (PBS^++) overnight at 4° C. Ligand Fg was coated at a concentration of […] and iC3b at […]. Heterodimer specific mAb IB4 (ascites) was coated at a 1:100 dilution. Subsequently, the non-specific sites in the wells were blocked by incubation with 1% non-fat milk in Tris Buffered Saline (TBS), pH 7.4, at room temperature for 1 h, except for the neutrophil assay, where the wells were blocked with TBS containing 1% gelatin. Next, the wells were washed three times with TBS. K562 cells were suspended in the assay buffer (TBS containing 1 mM each of Ca^2+ and Mg^2+ ions (TBS^++)) and were transferred to the ligand-coated wells (30,000 cells/well). Stock solution of the leukadherin family of small molecule agonists was prepared by dissolving the compounds in DMSO at a concentration of 2-10 mM. Final concentration of DMSO in the assay was approximately 1%. […] Cells remaining adherent were fixed using formaldehyde and were quantitated using imaging microscopy, as previously described. […]
smiles,measurement,setting,value
O=C(O)c1ccc(-c2ccc(/C=C3\SC(=S)N(Cc4ccccc4)C3=O)o2)cc1 [LA1],binding of K562 E320A to Fg,[1],selectively increased
same,neutrophil accumulation in the zebrafish tailfin (number of neutrophils),[2],15.6±1.7
same,K562 CD11b/CD18 cells adhering to immobilized iC3b,integrin CD11b/CD18,increase binding of CD11b/CD18 to iC3b in a dose-dependent fashion
